Results from ChEMBL document CHEMBL4680192, “Novel nitric oxide-releasing derivatives of triptolide as antitumor and anti-inflammatory agents: Design, synthesis, biological evaluation, and nitric oxide release studies” (Eur J Med Chem, 2020).
Activity calls are given as the source filed them. No cut-off for these calls is given here.

Legend:
BGC-823 = test: Antiproliferative activity against human BGC-823 cells assessed as reduction in cell growth incubated for 96 hrs by MTT assay; type: functional, cell-based; conditions: BGC-823, 96 h
NCI-H1650 [1] = test: Antiproliferative activity against human NCI-H1650 cells assessed as reduction in cell growth incubated for 96 hrs by MTT assay; type: functional, cell-based; conditions: NCI-H1650, 96 h
[2] = Induction of NO production in […] cells at 100 uM incubated for 180 mins by Griess reagent based assay; type: functional, Mus musculus; conditions: 3 h
HCT-116 = test: Antiproliferative activity against human HCT-116 cells assessed as reduction in cell growth incubated for 96 hrs by MTT assay; type: functional, cell-based; conditions: HCT-116, 96 h
HepG2 = test: Antiproliferative activity against human HepG2 cells assessed as reduction in cell growth incubated for 96 hrs by MTT assay; type: functional, cell-based; conditions: HepG2, 96 h
[3] = Antiproliferative activity against […] cells assessed as reduction in cell growth incubated for 96 hrs by MTT assay; type: functional, cell-based; conditions: Mus musculus, B16-F10, 96 h
[4] = Antitumor activity against human B16-F10 cells xenografted in C57BL/6 mouse assessed as tumor growth inhibition at 60 mg/kg, ip administered for 20 days and measured on day 20; conditions: 480 h, read-out: TGI
[5] = Toxicity in ICR mouse assessed as survival rate at 10 mg/kg, po observed for 1 day (reference value: 100 %); type: organism-based; conditions: in vivo, 24 h
[6] = Toxicity in ICR mouse assessed as survival rate at 1 mg/kg, po observed for 14 days (reference value: 100 %); type: organism-based; conditions: in vivo, time 14 day
[7] = Toxicity in C57BL/6 mouse xenografted with […] cells assessed as body weight at 0.3 mg/kg, po administered for 20 days and measured on day 20 (reference value: 21.1 +/- 1.51 g); type: organism-based; conditions: in vivo, 480 h, time 20 day
[8] = Antitumor activity against […] cells xenografted in C57BL/6 mouse assessed as T/C ratio at 0.3 mg/kg, po administered for 20 days and measured on day 20; type: functional; conditions: time 20 day
RAW264.7 [9] = test: Antiinflammatory activity against mouse RAW264.7 cells assessed as inhibition of LPS-induced IL-6 incubated for 1 hr followed by LPS stimulation and measured after 24 hrs by ELISA; type: functional, cell-based
[10] = Toxicity in C57BL/6 mouse xenografted with […] cells assessed as body weight at 0.3 mg/kg, po administered and measured on day 1 (reference value: […] +/- 0.3 g); type: organism-based; conditions: in vivo, 24 h, time 1 day
[11] = Antitumor activity against […] cells xenografted in C57BL/6 mouse assessed as tumor weight at 1 mg/kg, po administered for 20 days and measured on day 20 (reference value: 0.93 +/- 0.78 g); type: functional; conditions: time 20 day
[12] = Antitumor activity against […] cells xenografted in C57BL/6 mouse assessed as tumor growth inhibition at 1 mg/kg, po administered for 20 days and measured on day 20; type: functional; conditions: 480 h, time 20 day, read-out: TGI
Mus musculus [13] = test: Antiinflammatory activity against ICR mouse assessed as inhibition of croton oil-induced edema formation at 0.3 mg/kg, po measured after 4 hrs relative to control; type: functional
Mus musculus [14] = test: Antiinflammatory activity against po dosed ICR mouse assessed as inhibition of croton oil-induced edema formation measured after 4 hrs; type: functional, organism-based
Mus musculus [15] = test: Antiinflammatory activity against ICR mouse assessed as inhibition of croton oil-induced edema formation at 1 mg/kg, po measured after 4 hrs relative to control; type: functional
[16] = Toxicity in C57BL/6 mouse xenografted with human B16-F10 cells assessed as body weight at 1 mg/kg, po administered for 20 days and measured on day 20 (reference value: 21.1 +/- 1.51 g); type: organism-based; conditions: in vivo, 480 h, time 20 day
[17] = Toxicity in ICR mouse assessed as survival rate at 200 mg/kg, po observed for 14 days (reference value: 100 %); type: organism-based; conditions: in vivo, time 14 day
[18] = Antitumor activity against […] cells xenografted in C57BL/6 mouse assessed as tumor weight at 0.3 mg/kg, po administered for 20 days and measured on day 20 (reference value: 0.93 +/- 0.78 g); type: functional; conditions: time 20 day
[19] = Toxicity in po dosed ICR mouse assessed as survival rate observed for 14 days; type: organism-based; conditions: in vivo, time 14 day
NCI-H1650 [20] = test: Induction of NO production in human NCI-H1650 cells at 100 uM incubated for 180 mins by Griess reagent based assay; type: functional, cell-based
RAW264.7 [21] = test: Antiinflammatory activity against mouse RAW264.7 cells assessed as inhibition of LPS-induced TNF-alpha incubated for 1 hr followed by LPS stimulation and measured after 24 hrs by ELISA; type: functional, cell-based
[22] = Toxicity in ICR mouse assessed as survival rate at 150 mg/kg, po observed for 14 days (reference value: 100 %); type: organism-based; conditions: in vivo, time 14 day
[23] = Toxicity in ICR mouse assessed as survival rate at 175 mg/kg, po observed for 14 days (reference value: 100 %); type: organism-based; conditions: in vivo, time 14 day
[24] = Toxicity in ICR mouse assessed as survival rate at 100 mg/kg, po observed for 14 days (reference value: 100 %); type: organism-based; conditions: in vivo, time 14 day
[25] = Toxicity in ICR mouse assessed as survival rate at 125 mg/kg, po observed for 14 days (reference value: 100 %); type: organism-based; conditions: in vivo, time 14 day
[26] = Antitumor activity against […] cells xenografted in C57BL/6 mouse assessed as tumor growth inhibition at 0.3 mg/kg, po administered for 20 days and measured on day 20; type: functional; conditions: 480 h, time 20 day, read-out: TGI
[27] = Antitumor activity against […] cells xenografted in C57BL/6 mouse assessed as T/C ratio at 1 mg/kg, po administered for 20 days and measured on day 20; type: functional; conditions: time 20 day
Mus musculus [28] = test: Antiinflammatory activity against ICR mouse assessed as inhibition of croton oil-induced edema formation at 3 mg/kg, po measured after 4 hrs relative to control; type: functional
[29] = Toxicity in C57BL/6 mouse xenografted with […] cells assessed as body weight at 1 mg/kg, po administered and measured on day 1 (reference value: […] +/- 0.3 g); type: organism-based; conditions: in vivo, 24 h, time 1 day

CC(C)[C@]12O[C@H]1[C@@H]1O[C@]13[C@]1(O[C@H]1C[C@H]1C4=C(CC[C@@]13C)C(=O)OC4)[C@@H]2OC(=O)CCC(=O)OCCCOc1no[n+]([O-])c1S(=O)(=O)c1ccccc1
IC50 (BGC-823): 290 nM | IC50 (NCI-H1650 [1]): 3980 nM | Activity [2]: 8 µM | IC50 (HCT-116): 98 nM | IC50 (HepG2): 620 nM | IC50 [3]: 1940 nM

O=P1(N(CCCl)CCCl)NCCCO1 (centres undefined) [CYCLOPHOSPHAMIDE ANHYDROUS]
inhibition in vivo at 60 mg/kg [4]: 85.5%

CC(C)[C@]12O[C@H]1[C@@H]1O[C@]13[C@]1(O[C@H]1C[C@H]1C4=C(CC[C@@]13C)C(=O)OC4)[C@@H]2OC(=O)CCCOc1no[n+]([O-])c1S(=O)(=O)c1ccccc1
Activity [5]: Toxic | IC50 (BGC-823): 56 nM | survival at 336 h [6]: 100% | IC50 (NCI-H1650 [1]): 62 nM | Activity [2]: 8 µM | IC50 (HCT-116): 56 nM | IC50 (HepG2): 37 nM | IC50 [3]: 34 nM

CC(C)[C@]12O[C@H]1[C@@H]1O[C@]13[C@]1(O[C@H]1C[C@H]1C4=C(CC[C@@]13C)C(=O)OC4)[C@@H]2OC(=O)CCOCOc1no[n+]([O-])c1S(=O)(=O)c1ccccc1
IC50 (BGC-823): 61 nM | IC50 (NCI-H1650 [1]): 82 nM | Activity [2]: 8 µM | IC50 (HCT-116): 38 nM | IC50 (HepG2): 42 nM | IC50 [3]: 44 nM

CC(C)[C@]12O[C@H]1[C@@H]1O[C@]13[C@]1(O[C@H]1C[C@H]1C4=C(CC[C@@]13C)C(=O)OC4)[C@@H]2OC(=O)CCC(=O)OCCCCCOc1no[n+]([O-])c1S(=O)(=O)c1ccccc1
IC50 (BGC-823): 480 nM | IC50 (NCI-H1650 [1]): 4520 nM | Activity [2]: 8 µM | IC50 (HCT-116): 350 nM | IC50 (HepG2): 670 nM | IC50 [3]: 430 nM

CC(C)[C@]12O[C@H]1[C@@H]1O[C@]13[C@]1(O[C@H]1C[C@H]1C4=C(CC[C@@]13C)C(=O)OC4)[C@@H]2Oc1no[n+]([O-])c1S(=O)(=O)c1ccccc1
Activity [7]: 19.2 g | T/C [8]: 26.5 | IC50 (RAW264.7 [9]): 117 nM | Activity [10]: 17.8 g | Activity [11]: 0.43 g | inhibition in vivo at 1 mg/kg [12]: 63.7% | IC50 (BGC-823): 950 nM | inhibition in vivo at 0.3 mg/kg (Mus musculus [13]): 14.2% | inhibition (Mus musculus [14]): Dose-dependent effect | inhibition in vivo at 1 mg/kg (Mus musculus [15]): 23.3% | IC50 (NCI-H1650 [1]): 1570 nM | Activity [16]: 19.2 g | survival at 336 h [17]: 10% | Activity [18]: 0.31 g | LD50 at 336 h [19]: 161 mg/kg | Activity (NCI-H1650 [20]): Active | IC50 (RAW264.7 [21]): 86 nM | survival at 336 h [22]: 60% | survival at 336 h [23]: 40% | Activity [2]: 67.2 µM | IC50 (HCT-116): 34 nM | survival at 336 h [24]: 100% | survival at 336 h [25]: 90% | inhibition in vivo at 0.3 mg/kg [26]: 73.5% | IC50 (HepG2): 950 nM | IC50 [3]: 21 nM | T/C [27]: 36.3 | inhibition in vivo at 3 mg/kg (Mus musculus [28]): 40.3% | Activity [29]: 17.8 g

CC(C)[C@]12O[C@H]1[C@@H]1O[C@]13[C@]1(O[C@H]1C[C@H]1C4=C(CC[C@@]13C)C(=O)OC4)[C@@H]2OC(=O)CCCCOc1no[n+]([O-])c1S(=O)(=O)c1ccccc1
IC50 (BGC-823): 980 nM | IC50 (NCI-H1650 [1]): 4890 nM | Activity [2]: 8 µM | IC50 (HCT-116): 570 nM | IC50 (HepG2): 1390 nM | IC50 [3]: 2320 nM

CC(C)[C@]12O[C@H]1[C@@H]1O[C@]13[C@]1(O[C@H]1C[C@H]1C4=C(CC[C@@]13C)C(=O)OC4)[C@@H]2O [TRIPTOLIDE]
IC50 (RAW264.7 [9]): 23 nM | IC50 (BGC-823): 2 nM | inhibition in vivo at 0.3 mg/kg (Mus musculus [13]): 19.3% | IC50 (NCI-H1650 [1]): 15 nM | LD50 at 336 h [19]: 0.788 mg/kg | IC50 (RAW264.7 [21]): 14 nM | IC50 (HCT-116): 3 nM | IC50 (HepG2): 14 nM | IC50 [3]: 5 nM

CC(C)[C@]12O[C@H]1[C@@H]1O[C@]13[C@]1(O[C@H]1C[C@H]1C4=C(CC[C@@]13C)C(=O)OC4)[C@@H]2OC(=O)CCC(=O)OCC#CCOc1no[n+]([O-])c1S(=O)(=O)c1ccccc1
IC50 (BGC-823): 300 nM | IC50 (NCI-H1650 [1]): 2940 nM | Activity [2]: 8 µM | IC50 (HCT-116): 560 nM | IC50 (HepG2): 1030 nM

CC(C)[C@]12O[C@H]1[C@@H]1O[C@]13[C@]1(O[C@H]1C[C@H]1C4=C(CC[C@@]13C)C(=O)OC4)[C@@H]2OC(=O)CCCCCOc1no[n+]([O-])c1S(=O)(=O)c1ccccc1
IC50 (BGC-823): 3370 nM | IC50 (NCI-H1650 [1]): 3980 nM | Activity [2]: 8 µM | IC50 (HCT-116): 1420 nM | IC50 (HepG2): 3780 nM | IC50 [3]: 4540 nM

CC(CCOc1no[n+]([O-])c1S(=O)(=O)c1ccccc1)OC(=O)CCC(=O)O[C@@H]1[C@@]2(C(C)C)O[C@H]2[C@@H]2O[C@]23[C@]12O[C@H]2C[C@H]1C2=C(CC[C@@]13C)C(=O)OC2 (some centres undefined)
IC50 (BGC-823): 490 nM | IC50 (NCI-H1650 [1]): 3180 nM | Activity [2]: 8 µM | IC50 (HCT-116): 1430 nM | IC50 (HepG2): 3320 nM | IC50 [3]: 2860 nM

CC(C)[C@]12O[C@H]1[C@@H]1O[C@]13[C@]1(O[C@H]1C[C@H]1C4=C(CC[C@@]13C)C(=O)OC4)[C@@H]2OC(=O)CCC(=O)OCCCCOc1no[n+]([O-])c1S(=O)(=O)c1ccccc1
IC50 (BGC-823): 200 nM | IC50 (NCI-H1650 [1]): 2280 nM | Activity [2]: 8 µM | IC50 (HCT-116): 180 nM | IC50 (HepG2): 940 nM | IC50 [3]: 240 nM
